Measured values from patent US4340609A, “Amidinourea derivative veterinary compositions for suppression of parasitemia” (William H. Rorer, Inc., priority 1980, dated 1982).
Structures can show the parent of a compound that is named as a salt. Where two headings read alike, the source gives them in different places.

What was measured:
[1] = tested on: Babesis caballi, or B. equi; conditions: horses; reported; cited from earlier work
P. berghei = conditions: cited from earlier work
plasmodium berghei = experiment: suppression of parasitemia in mice infected with plasmodium berghei; assay type: in vivo; conditions: for ED50: Plasmodium berghei, sc; for ED50 / Mean % Parasitemia / Mean % Suppression / % died: mice
Description: Five representative amidinoureas were tested in mice infected with plasmodium berghei. The five compounds tested are the following:
Groups of 10 mice each were used in seven doses totaling 70 mice per compound. The protozoal infection was induced by intraperitoneal injection of 5,000,000 parasitized blood cells from a donor. The compound was administered subcutaneously in doses ranging from 0.15 to 10 mg. per kg., suspended on 0.5% methacel solution (doses expressed as base). The compound was repeatedly injected on the day of inoculation (day 1), day 2 and day 3. Blood smears were performed on days 4, 5, 6 and 10.
Untreated control but infected mice developed fulminating parasitemia of as high as 35% on day 10 and deaths occurred from day 12 to 14.

LD50 in mice = conditions: mouse, in vivo
[2] = s.c., 1.0 mg/kg on days 1-3, 4th day
[3] = s.c., 1.0 mg/kg on days 1-3, 5th day
[4] = s.c., 1.0 mg/kg on days 1-3, 6th day
[5] = s.c., 1.0 mg/kg on days 1-3, 10th day
[6] = s.c., 2.0 mg/kg on days 1-3, 4th day
[7] = s.c., 2.0 mg/kg on days 1-3, 5th day
[8] = s.c., 2.0 mg/kg on days 1-3, 6th day
[9] = s.c., 2.0 mg/kg on days 1-3, 10th day
[10] = s.c., 10.0 mg/kg on days 1-3, 4th day
[11] = s.c., 10.0 mg/kg on days 1-3, 5th day
[12] = s.c., 10.0 mg/kg on days 1-3, 6th day
[13] = s.c., 10.0 mg/kg on days 1-3, 10th day
[14] = s.c., .15 mg/kg on days 1-3, 4th day
[15] = s.c., .15 mg/kg on days 1-3, 5th day
[16] = s.c., .15 mg/kg on days 1-3, 6th day
[17] = s.c., .15 mg/kg on days 1-3, 10th day
[18] = s.c., .20 mg/kg on days 1-3, 4th day
[19] = s.c., .20 mg/kg on days 1-3, 5th day
[20] = s.c., .20 mg/kg on days 1-3, 6th day
[21] = s.c., .20 mg/kg on days 1-3, 10th day
[22] = s.c., .30 mg/kg on days 1-3, 4th day
[23] = s.c., .30 mg/kg on days 1-3, 5th day
[24] = s.c., .30 mg/kg on days 1-3, 6th day
[25] = s.c., .30 mg/kg on days 1-3, 10th day
[26] = s.c., .50 mg/kg on days 1-3, 4th day
[27] = s.c., .50 mg/kg on days 1-3, 5th day
[28] = s.c., .50 mg/kg on days 1-3, 6th day
[29] = s.c., .50 mg/kg on days 1-3, 10th day

N=C(N)c1ccc(N=NNc2ccc(C(=N)N)cc2)cc1 [birenil]
effect on equine piroplasmosis parasites [1]: only to reduce the number of parasites

CCc1nc(N)nc(N)c1-c1ccc(Cl)cc1 [pyrimethamine]
resistance of P. berghei (P. berghei; P. berghei): resistant

CCCN=C(NC)NC(=O)Nc1c(C)cccc1C [Compound D, 1-(2,6-dimethylphenyl)-3-N-methyl-N'-propylamidino)urea hydrochloride]
ED50 (plasmodium berghei; 96 h, s.c., levels of parasitemia, 4th day, read-out: SED50 (Suppressant Effective Dose50)): 0.9 mg/kg
ED50 (plasmodium berghei; 120 h, s.c., levels of parasitemia, 5th day, read-out: SED50 (Suppressant Effective Dose50)): 1.91 mg/kg
ED50 (plasmodium berghei; 144 h, s.c., levels of parasitemia, 6th day, read-out: SED50 (Suppressant Effective Dose50)): 2.09 mg/kg
ED50 (plasmodium berghei; 240 h, s.c., levels of parasitemia, 10th day, read-out: SED50 (Suppressant Effective Dose50)): 4.47 mg/kg
ED50 (plasmodium berghei; day 4 to day 10, read-out: HIGHEST SED50): 4.47 mg/kg
ED50 (plasmodium berghei; day 4 to day 10, read-out: LOWEST SED50): 0.9 mg/kg
FACTOR (HIGHEST SED50 ÷ LOWEST SED50) (plasmodium berghei; factor of change, day 4 to day 10, duration of action): 4.97
Mean % Parasitemia (plasmodium berghei; [2]): 2.25%
Mean % Suppression (plasmodium berghei; [2]): 57.1%
Mean % Parasitemia (plasmodium berghei; [3]): 6.50%
Mean % Suppression (plasmodium berghei; [3]): 11.0%
Mean % Parasitemia (plasmodium berghei; [4]): 6.70%
Mean % Suppression (plasmodium berghei; [4]): 28.0%
Mean % Parasitemia (plasmodium berghei; [5]): 22.4%
Mean % Suppression (plasmodium berghei; [5]): 36.9%
% died (plasmodium berghei; s.c., 1.0 mg/kg on days 1-3, 12th day): 20%
% died (plasmodium berghei; s.c., 1.0 mg/kg on days 1-3, 13th day): 20%
% died (plasmodium berghei; s.c., 1.0 mg/kg on days 1-3, 14th day): 40%
Mean % Parasitemia (plasmodium berghei; [6]): 1.75%
Mean % Suppression (plasmodium berghei; [6]): 66.6%
Mean % Parasitemia (plasmodium berghei; [7]): 3.30%
Mean % Suppression (plasmodium berghei; [7]): 54.8%
Mean % Parasitemia (plasmodium berghei; [8]): 4.80%
Mean % Suppression (plasmodium berghei; [8]): 48.4%
Mean % Parasitemia (plasmodium berghei; [9]): 20.5%
Mean % Suppression (plasmodium berghei; [9]): 42.3%
% died (plasmodium berghei; s.c., 2.0 mg/kg on days 1-3, 12th day): 20%
% died (plasmodium berghei; s.c., 2.0 mg/kg on days 1-3, 13th day): 20%
% died (plasmodium berghei; s.c., 2.0 mg/kg on days 1-3, 14th day): 20%
Mean % Parasitemia (plasmodium berghei; [10]): 0.25%
Mean % Suppression (plasmodium berghei; [10]): 96.2%
Mean % Parasitemia (plasmodium berghei; [11]): 0%
Mean % Suppression (plasmodium berghei; [11]): 100.0%
Mean % Parasitemia (plasmodium berghei; [12]): 0%
Mean % Suppression (plasmodium berghei; [12]): 100.0%
Mean % Parasitemia (plasmodium berghei; [13]): 0%
Mean % Suppression (plasmodium berghei; [13]): 100.0%
% died (plasmodium berghei; s.c., 10.0 mg/kg on days 1-3, 13th day): 0%
% died (plasmodium berghei; s.c., 10.0 mg/kg on days 1-3, 14th day): 0%
Mean % Parasitemia (plasmodium berghei; [14]): 5.00%
Mean % Suppression (plasmodium berghei; [14]): 4.8%
Mean % Parasitemia (plasmodium berghei; [15]): 7.40%
Mean % Suppression (plasmodium berghei; [15]): 0%
Mean % Parasitemia (plasmodium berghei; [16]): 9.20%
Mean % Suppression (plasmodium berghei; [16]): 1.1%
Mean % Parasitemia (plasmodium berghei; [17]): 34.0%
Mean % Suppression (plasmodium berghei; [17]): 4.2%
% died (plasmodium berghei; s.c., .15 mg/kg on days 1-3, 12th day): 0%
% died (plasmodium berghei; s.c., .15 mg/kg on days 1-3, 13th day): 20%
% died (plasmodium berghei; s.c., .15 mg/kg on days 1-3, 14th day): 80%
Mean % Parasitemia (plasmodium berghei; [18]): 4.50%
Mean % Suppression (plasmodium berghei; [18]): 14.3%
Mean % Parasitemia (plasmodium berghei; [19]): 7.30%
Mean % Suppression (plasmodium berghei; [19]): 0%
Mean % Parasitemia (plasmodium berghei; [20]): 9.10%
Mean % Suppression (plasmodium berghei; [20]): 2.2%
Mean % Parasitemia (plasmodium berghei; [21]): 30.8%
Mean % Suppression (plasmodium berghei; [21]): 13.2%
% died (plasmodium berghei; s.c., .20 mg/kg on days 1-3, 12th day): 40%
% died (plasmodium berghei; s.c., .20 mg/kg on days 1-3, 13th day): 60%
% died (plasmodium berghei; s.c., .20 mg/kg on days 1-3, 14th day): 100%
Mean % Parasitemia (plasmodium berghei; [22]): 4.50%
Mean % Suppression (plasmodium berghei; [22]): 14.3%
Mean % Parasitemia (plasmodium berghei; [23]): 7.20%
Mean % Suppression (plasmodium berghei; [23]): 1.4%
Mean % Parasitemia (plasmodium berghei; [24]): 8.20%
Mean % Suppression (plasmodium berghei; [24]): 11.8%
Mean % Parasitemia (plasmodium berghei; [25]): 26.5%
Mean % Suppression (plasmodium berghei; [25]): 25.4%
% died (plasmodium berghei; s.c., .30 mg/kg on days 1-3, 12th day): 0%
% died (plasmodium berghei; s.c., .30 mg/kg on days 1-3, 13th day): 0%
% died (plasmodium berghei; s.c., .30 mg/kg on days 1-3, 14th day): 60%
Mean % Parasitemia (plasmodium berghei; [26]): 3.50%
Mean % Suppression (plasmodium berghei; [26]): 33.3%
Mean % Parasitemia (plasmodium berghei; [27]): 7.10%
Mean % Suppression (plasmodium berghei; [27]): 2.7%
Mean % Parasitemia (plasmodium berghei; [28]): 7.30%
Mean % Suppression (plasmodium berghei; [28]): 21.5%
Mean % Parasitemia (plasmodium berghei; [29]): 24.3%
Mean % Suppression (plasmodium berghei; [29]): 31.5%
% died (plasmodium berghei; s.c., .50 mg/kg on days 1-3, 12th day): 20%
% died (plasmodium berghei; s.c., .50 mg/kg on days 1-3, 13th day): 40%
% died (plasmodium berghei; s.c., .50 mg/kg on days 1-3, 14th day): 80%
LD50 (LD50 in mice): 222 to 366 mg/kg

CC1(C)N=C(N)N=C(N)N1c1ccc(Cl)cc1 [chloroguanide triazine pamoate]
excretion from the host body (P. berghei; P. berghei infected mice, single muscular injection): not excreted rapidly from the host body
effect in P. berghei infected mice (P. berghei; single muscular injection): good and lasting effects

C[n+]1cccc2cc(NC(=O)Nc3ccc4c(ccc[n+]4C)c3)ccc21 [acaprin]
effect on equine piroplasmosis parasites [1]: only to reduce the number of parasites

acriflavin
effect on equine piroplasmosis parasites [1]: only to reduce the number of parasites
